Data taken from patent publication US20240368163A1, “COMPOUNDS AND METHODS FOR MODULATING SPLICING” (REMIX THERAPEUTICS INC., priority 2021, published 2024).
Like-named read-outs stand apart in the source and are kept apart here.

What was measured:
Assay type in all cases: cell-based, human
SMN2 = experiment: Splicing RT-qPCR panel, SMN2 canonical junction (CJ) mRNA; details: Homo sapiens, read-out: SMN2 IC50 (decrease in CJ mRNA levels)
Summary of the method: (§1)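 First, A673 cells adhered 24 h, while K562 cells were plated directly. Next, compounds were added as an 11-point 3-fold series from 10 uM for 24 h. Finally, lysates went to RT-qPCR, with 2^(−ΔΔCt) values converted to percentage response.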

HTT [1] = experiment: Splicing RT-qPCR assay, HTT mRNA canonical junction (CJ) and alternative junction (AJ); details: Homo sapiens; for AC50: increase in AJ mRNA
Summary of the method: as §1

MYB [2] = experiment: Splicing RT-qPCR assay, MYB mRNA canonical junction (CJ) and alternative junction (AJ); details: Homo sapiens; for AC50: increase in AJ mRNA
Summary of the method: as §1

Target C [3] = experiment: Splicing RT-qPCR panel, Target C canonical junction (CJ) mRNA; details: Homo sapiens, read-out: Target C IC50 (decrease in CJ mRNA levels)
Summary of the method: as §1

HTT [4] = experiment: HiBiT protein abundance assay, HTT; details: Homo sapiens, K562, 24 h, modified K562 cells
Summary of the method: (§2)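 K562 cells with endogenous HiBiT-tagged target were treated 24 h at 37 °C with compound (10-point 3-fold dilution, top 10 μM final, DMSO ≤0.25%). Lytic LgBiT luminescence was normalized to unmodified K562 (baseline) and DMSO-treated tagged cells; IC50 interpolated at 50% from four-parameter logistic fit.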

Target C [5] = experiment: HiBiT protein abundance assay, Target C; details: Homo sapiens, K562, 24 h, modified K562 cells
Summary of the method: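 HiBiT knock-in K562-derived cells, 10000 cells/well, were treated 24 h at 37 °C with a 10-point 3-fold dilution series (top 10 μM final, DMSO ≤0.25%). Lytic HiBiT luminescence was normalized to unmodified K562 and DMSO controls; IC50 was interpolated at 50% from a four-parameter logistic fit.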

MYB [6] = experiment: HiBiT protein abundance assay, MYB; details: Homo sapiens, K562, 24 h, modified K562 cells
Summary of the method: as §2

[7] = RT-qPCR panel, canonical junction mRNA, compound concentration having 50% response in CJ decrease
[8] = 24 h, decrease in CJ mRNA, A673 or K562 cells, 24 hours treatment, RT-qPCR, read-out: HTT CJ IC50
[9] = 24 h, A673 or K562 cells, 24 hours treatment, RT-qPCR
[10] = RT-qPCR panel, canonical junction mRNA, compound concentration having 50% response in CJ decrease, read-out: HTT IC50 (decrease in CJ mRNA levels)
[11] = 24 h, decrease in CJ mRNA, A673 or K562 cells, 24 hours treatment, RT-qPCR, read-out: MYB CJ IC50
[12] = RT-qPCR panel, canonical junction mRNA, compound concentration having 50% response in CJ decrease, read-out: MYB IC50 (decrease in CJ mRNA levels)
[13] = gene panel, CJ qPCR, protocol of Example 142
[14] = gene panel, CJ qPCR, protocol of Example 142, read-out: HTT IC50 (decrease in CJ mRNA levels)
[15] = gene panel, CJ qPCR, protocol of Example 142, read-out: MYB IC50 (decrease in CJ mRNA levels)

IC50 (HTT [1]; [8]) [nM] | SMILES | IC50 (SMN2; [7]) [nM] | AC50 (HTT [1]; [9]) [nM] | IC50 (HTT [1]; [10]) [nM] | IC50 (MYB [2]; [11]) [nM] | AC50 (MYB [2]; [9]) [nM] | IC50 (MYB [2]; [12]) [nM] | IC50 (Target C [3]; [7]) [nM] | IC50 (HTT [4]; Table 13A) [nM] | IC50 (Target C [5]; Table 13A) [nM] | IC50 (MYB [6]; Table 13A) [nM] | IC50 (SMN2; [13]) [nM] | IC50 (HTT [1]; [14]) [nM] | IC50 (MYB [2]; [15]) [nM] | IC50 (Target C [3]; [13]) [nM] | IC50 (HTT [4]; Table 13B) [nM] | IC50 (Target C [5]; Table 13B) [nM] | IC50 (MYB [6]; Table 13B) [nM]
> 10000 | c1nc2c(-c3cn[nH]c3)ccc(-c3ccc(N4CCCC5(CCNC5)C4)nn3)c2s1 (centres unmarked) [Compound 193] | > 10000 | > 10000 | > 10000 | > 10000 | > 10000 | > 10000 | > 10000 | > 10000 | > 10000 | 1000 to 10000 | – | – | – | – | – | – | –
> 10000 | c1n[nH]cc1-c1ccc(-c2ccc(OC3CCNCC3)nn2)c2[nH]ncc12 [Compound 230] | 1000 to 10000 | > 10000 | > 10000 | > 10000 | > 10000 | > 10000 | > 10000 | 1000 to 10000 | > 10000 | 1000 to 10000 | – | – | – | – | – | – | –
– | CN(c1ccc(-c2ccc(-c3cn[nH]c3)c(C(F)(F)F)n2)nn1)[C@@H]1C[C@H]2CC[C@@H](C1)N2 [Compound 916] | – | – | – | – | – | – | – | – | – | – | > 10000 | > 10000 | > 10000 | > 10000 | > 10000 | > 10000 | > 10000
> 10000 | c1nc2c(-c3cn[nH]c3)ccc(-c3ccc(N4CCC5(CCN5)C4)nn3)c2s1 (centres unmarked) [Compound 265] | 100 to 1000 | > 10000 | > 10000 | 1000 to 10000 | > 10000 | 1000 to 10000 | > 10000 | > 10000 | > 10000 | > 10000 | – | – | – | – | – | – | –
– | COc1nc(-c2ccc(OC3CC4CCC(C3)N4)nn2)ccc1-n1cccn1 (centres unmarked) [Compound 949] | – | – | – | – | – | – | – | – | – | – | 1000 to 10000 | 1000 to 10000 | > 10000 | > 10000 | 1000 to 10000 | 1000 to 10000 | 1000 to 10000
– | COc1nc(-c2ccc(N(C)C3CC(C)(C)NC(C)(C)C3)nc2)ccc1-c1cn[nH]c1 [Compound 993] | – | – | – | – | – | – | – | – | – | – | < 100 | < 100 | 100 to 1000 | 100 to 1000 | < 100 | 100 to 1000 | 100 to 1000
– | CN(c1ccc(-c2cc(F)c(-c3cn[nH]c3)c3cn[nH]c23)nn1)[C@@H]1C[C@H]2CC[C@@H](C1)N2 [Compound 351] | < 100 | < 100 | < 100 | 100 to 1000 | 100 to 1000 | 100 to 1000 | 100 to 1000 | < 100 | 100 to 1000 | 100 to 1000 | – | – | – | – | – | – | –
> 10000 | c1n[nH]cc1-c1ccc(-c2ccc(NC3CCNCC3)nn2)c2[nH]ncc12 [Compound 263] | > 10000 | > 10000 | > 10000 | > 10000 | > 10000 | > 10000 | > 10000 | > 10000 | > 10000 | > 10000 | – | – | – | – | – | – | –
> 10000 | c1cnn(-c2ccc(-c3ccc(N4CCC(NC5CC5)C4)nn3)c3[nH]ncc23)c1 (centres unmarked) [Compound 347, N-cyclopropyl-1-{6-[4-(pyrazol-1-yl)-1H-indazol-7-yl]pyridazin-3-yl}pyrrolidin-3-amine] | 1000 to 10000 | > 10000 | > 10000 | > 10000 | > 10000 | > 10000 | > 10000 | 1000 to 10000 | > 10000 | 1000 to 10000 | – | – | – | – | – | – | –
– | [2H]C([2H])([2H])N(c1ccc(-c2ccc(-c3cn[nH]c3)c3cn[nH]c23)nn1)[C@@H]1C[C@H]2CCC[C@@H](C1)N2 [Compound 296] | < 100 | < 100 | < 100 | 100 to 1000 | < 100 | 100 to 1000 | < 100 | < 100 | < 100 | < 100 | – | – | – | – | – | – | –
– | CC(C)Oc1nc(-c2ccc(N(C)[C@@H]3C[C@H]4CC[C@@H](C3)N4)nn2)ccc1-c1cn[nH]c1 [Compound 937] | – | – | – | – | – | – | – | – | – | – | < 100 | 100 to 1000 | 100 to 1000 | 1000 to 10000 | 100 to 1000 | 1000 to 10000 | 100 to 1000
> 10000 | c1n[nH]cc1-c1ccc(-c2ccc(N3CC[C@@]45CCN[C@@H]4CC[C@@H]35)nn2)c2[nH]ncc12 [Compound 304] | 1000 to 10000 | > 10000 | > 10000 | > 10000 | > 10000 | > 10000 | > 10000 | 1000 to 10000 | > 10000 | 1000 to 10000 | – | – | – | – | – | – | –
> 10000 | c1nc2c(-c3cn[nH]c3)ccc(-c3ccc(NC4CCNCC4)nn3)c2s1 [Compound 214] | 100 to 1000 | 1000 to 10000 | > 10000 | 1000 to 10000 | > 10000 | 1000 to 10000 | > 10000 | 1000 to 10000 | > 10000 | 1000 to 10000 | – | – | – | – | – | – | –

SMILES | IC50 (HTT [1]; [8]) [nM] | IC50 (SMN2; [7]) [nM] | AC50 (HTT [1]; [9]) [nM] | IC50 (HTT [1]; [10]) [nM] | IC50 (MYB [2]; [11]) [nM] | AC50 (MYB [2]; [9]) [nM] | IC50 (MYB [2]; [12]) [nM] | IC50 (Target C [3]; [7]) [nM] | IC50 (HTT [4]; Table 13A) [nM] | IC50 (Target C [5]; Table 13A) [nM] | IC50 (MYB [6]; Table 13A) [nM] | IC50 (SMN2; [13]) [nM] | IC50 (HTT [1]; [14]) [nM] | IC50 (MYB [2]; [15]) [nM] | IC50 (Target C [3]; [13]) [nM] | IC50 (HTT [4]; Table 13B) [nM] | IC50 (Target C [5]; Table 13B) [nM] | IC50 (MYB [6]; Table 13B) [nM]
c1nc2c(-c3cn[nH]c3)ccc(-c3ccc(O[C@@H]4C[C@H]5CCC[C@@H](C4)N5)nn3)c2[nH]1 [Compound 219] | 100 to 1000 | < 100 | 100 to 1000 | 100 to 1000 | 100 to 1000 | 100 to 1000 | 100 to 1000 | 100 to 1000 | < 100 | 100 to 1000 | 100 to 1000 | – | – | – | – | – | – | –
CCN(c1ccc(-c2ccc(-c3cn[nH]c3)c3cn[nH]c23)nn1)[C@@H]1C[C@H]2CCC[C@@H](C1)N2 [Compound 297] | 100 to 1000 | < 100 | 100 to 1000 | 100 to 1000 | 100 to 1000 | 100 to 1000 | 100 to 1000 | 100 to 1000 | 100 to 1000 | 100 to 1000 | 100 to 1000 | – | – | – | – | – | – | –
CCN(c1ccc(-c2ccc(-c3cn[nH]c3)c3cn[nH]c23)nn1)[C@@H]1C[C@H]2CC[C@@H](C1)N2 [Compound 300] | 100 to 1000 | 100 to 1000 | 100 to 1000 | 100 to 1000 | 1000 to 10000 | 100 to 1000 | 1000 to 10000 | 100 to 1000 | 100 to 1000 | 100 to 1000 | 100 to 1000 | – | – | – | – | – | – | –
c1nc2c(-c3cn[nH]c3)ccc(-c3ccc(O[C@H]4C[C@H]5COC[C@@H](C4)N5)nn3)c2s1 [Compound 358] | > 10000 | > 10000 | > 10000 | > 10000 | 1000 to 10000 | > 10000 | 1000 to 10000 | > 10000 | > 10000 | > 10000 | 1000 to 10000 | – | – | – | – | – | – | –
[2H]C([2H])([2H])N(c1ccc(-c2ccc(-c3cn[nH]c3)c3ncsc23)nn1)C1CCNCC1 [Compound 223] | 1000 to 10000 | 100 to 1000 | 1000 to 10000 | 1000 to 10000 | 1000 to 10000 | > 10000 | 1000 to 10000 | 1000 to 10000 | 1000 to 10000 | 1000 to 10000 | 1000 to 10000 | – | – | – | – | – | – | –
CCc1n[nH]c2c(-c3ccc(N(C)[C@@H]4C[C@H]5CC[C@@H](C4)N5)nn3)ccc(-c3cnn(C)n3)c12 [Compound 359, (1R,3S,5S)-N-{6-[3-ethyl-4-(2-methyl-1,2,3-triazol-4-yl)-1H-indazol-7-yl]pyridazin-3-yl}-N-methyl-8-azabicyclo[3.2.1]octan-3-amine] | > 10000 | > 10000 | > 10000 | > 10000 | > 10000 | > 10000 | > 10000 | > 10000 | > 10000 | > 10000 | 1000 to 10000 | – | – | – | – | – | – | –
